In patent US8796268B2, “Heteroaryls and uses thereof” (Millennium Pharmaceuticals, Inc., priority 2010, dated 2014):
One block for each compound: values may come before it.

What was measured:
Format in all cases: biochemical
[1] = target: T1, Human PI3K alpha (Homo sapiens, UniProt P42336); experiment: Human PI3K alpha enzyme assay (HTRF); settings: concentration not given, b1387 states 1.1 μM for PI3K α and β; for inhibition at 1.1 µM: read-out: p110 alpha Percent Inhibition
T1 construct: His (N); host or cells: SF9 insect cells (baculovirus)

[2] = target: T2, Human PI3K beta (Homo sapiens, UniProt P42338); experiment: Human PI3K beta enzyme assay (HTRF); settings: concentration not given, b1387 states 1.1 μM for PI3K α and β; for inhibition at 1.1 µM: read-out: p110 beta Percent Inhibition
T2 construct: His (N); host or cells: SF9 insect cells (baculovirus)
Method in brief: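 Compounds were mixed with 25 uM ATP, then with 3.5 uM di-C8 PI(4,5)P2 and His-tagged PI3K isoform (β 5.25 nM, δ 0.75 nM, γ 5 nM) at pH 7.00. After 30 min at room temperature, EDTA stopped the reaction and PIP3 was measured by HTRF over 1 h.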

[3] = target: T3, Human PI3K delta (Homo sapiens, UniProt O00329); experiment: Human PI3K delta enzyme assay (HTRF); settings: concentration not given, b1389 states 1.0 μM for PI3K δ and γ; for inhibition at 1 µM: read-out: p110 delta Percent Inhibition
T3 construct: His (N); host or cells: SF9 insect cells (baculovirus)
Excerpt: (§1) The catalytic subunits of PI3Ks are cloned into either pDEST8(p110 alpha) or pDEST10(p110beta, p110delta, and p110gamma) as N-terminal His tagged fusion proteins using the Gateway system (Invitrogen, catalog#11804-010 for pDEST8 and 11806-015 for pDEST10). The sequences are verified before recombinant protein expression using the Baculovirus Expression System with Gateway® Technology. The accession numbers for the subunits are as follows: • p110 alpha (GB:U79143) • p110beta (GB: S67334) • p110delta (GB: U86453) • p110gamma (GB: X83368) • The regulatory subunits of PI3Ks are cloned into pDEST8 as un-tagged protein using the Gateway system (Catalog#11804-010). The sequences are verified before recombinant protein expression using the Baculovirus Expression System with Gateway® Technology. The accession numbers for the subunits are as following: • p85 alpha (GB: BC030815) • p101(GB: AB028925) • VPS34 (accession number GB:BC033004) is cloned into pDEST20—Thombin as N-terminal GST tagged fusion proteins using the Gateway system (Invitrogen, catalog#11804-013). The sequences are verified before recombinant protein expression using the Baculovirus Expression System with Gateway® Technology.
(§2) For expression of the p110 complexes, the p85 (MOI of 4) is co-infected with p110 alpha, beta, and delta respectively (1MOI) in SF9 cells and harvested at 60 hours post co-infection. P110 gamma was infected at 1 MOI and harvested at 60 hours post infection.
(§3) For purification, PI3Ks are purified by Ni-NTA Agarose (Qiagen #30250) followed by Mono Q 10/100 GL (Ge Healthcare #17-5167-01). VPS34 is purified by Glutathione Sepharose 4 Fast Flow (GE Healthcare #17-5132-03) followed by HiTrap Q (GE Healthcare #17-1153-01).
(§4) 0.5 uL compounds in DMSO are added to wells of a 384 well microtitre plate (Corning 3575). At room temperature: 10 ul PI3K reaction buffer (50 mM Hepes, 5 mM DTT, 150 mM NaCl, 10 mM beta-glycerophosphate, 10 mM MgCl2, 0.25 mM sodium cholate and 0.001% CHAPS, pH 7.00) containing ATP (25 uM, Promega) is added followed immediately by 10 ul PI3K reaction buffer containing di-C8 P1(4,5)P2 (3.5 uM, CellSignals) and PI3Kalpha (0.4875 nM, Millennium Protein Sciences Group) and the mixture is incubated with shaking at room temperature for 30 minutes. Then 5 ul PI3K stop mix (50 mM Hepes, 5 mM DTT, 150 mM NaCl, 0.01% Tween-20, 15 mM EDTA and 25 nM biotin-PI(3,4,5)P3 (Echelon) is added to quench the reaction followed immediately by addition of 5 ul HTRF detection mix (50 mM Hepes, 5 mM DTT, 150 mM NaCl, 0.01% Tween-20, 40 mM KF, 1.0 nM GST:GRP-1 PH domain (Millennium Protein Sciences Group), 15 nM Streptavidin-XL (CisBio) and 0.375 nM anti-GST Eu++ antibody (CisBio) at pH 7.00). The plates are then incubated for 1 hour at room temperature with shaking and then read on a BMG PheraStar Plus reader.
(§5) 2) Human PI3K beta, delta and gamma isoforms are tested using the procedure described for PI3K alpha above but with the following changes: PI3K beta (5.25 nM), PI3K delta (0.75 nM) and PI3K gamma (5 nM). All isoforms supplied by Millennium Protein Science Group.
(§6) For the assay methods described above, test compound percent inhibition, at various concentrations, is calculated relative to control (DMSO and EDTA) treated samples. Compound concentration versus percent inhibition curves are fitted to generate IC50 values. One skilled in the art will appreciate that the values generated either as percentage inhibition at a single concentration or IC50 values are subject to experimental variation.

[4] = target: T4, Human PI3K gamma (Homo sapiens, UniProt P48736); experiment: Human PI3K gamma enzyme assay (HTRF); settings: concentration not given, b1389 states 1.0 μM for PI3K δ and γ; for inhibition at 1 µM: read-out: p110 gamma Percent Inhibition
T4 construct: His (N); host or cells: SF9 insect cells (baculovirus)
Excerpt: as §1, §2, §3, §4, §5, §6

T1 sequence (P42336 whole entry): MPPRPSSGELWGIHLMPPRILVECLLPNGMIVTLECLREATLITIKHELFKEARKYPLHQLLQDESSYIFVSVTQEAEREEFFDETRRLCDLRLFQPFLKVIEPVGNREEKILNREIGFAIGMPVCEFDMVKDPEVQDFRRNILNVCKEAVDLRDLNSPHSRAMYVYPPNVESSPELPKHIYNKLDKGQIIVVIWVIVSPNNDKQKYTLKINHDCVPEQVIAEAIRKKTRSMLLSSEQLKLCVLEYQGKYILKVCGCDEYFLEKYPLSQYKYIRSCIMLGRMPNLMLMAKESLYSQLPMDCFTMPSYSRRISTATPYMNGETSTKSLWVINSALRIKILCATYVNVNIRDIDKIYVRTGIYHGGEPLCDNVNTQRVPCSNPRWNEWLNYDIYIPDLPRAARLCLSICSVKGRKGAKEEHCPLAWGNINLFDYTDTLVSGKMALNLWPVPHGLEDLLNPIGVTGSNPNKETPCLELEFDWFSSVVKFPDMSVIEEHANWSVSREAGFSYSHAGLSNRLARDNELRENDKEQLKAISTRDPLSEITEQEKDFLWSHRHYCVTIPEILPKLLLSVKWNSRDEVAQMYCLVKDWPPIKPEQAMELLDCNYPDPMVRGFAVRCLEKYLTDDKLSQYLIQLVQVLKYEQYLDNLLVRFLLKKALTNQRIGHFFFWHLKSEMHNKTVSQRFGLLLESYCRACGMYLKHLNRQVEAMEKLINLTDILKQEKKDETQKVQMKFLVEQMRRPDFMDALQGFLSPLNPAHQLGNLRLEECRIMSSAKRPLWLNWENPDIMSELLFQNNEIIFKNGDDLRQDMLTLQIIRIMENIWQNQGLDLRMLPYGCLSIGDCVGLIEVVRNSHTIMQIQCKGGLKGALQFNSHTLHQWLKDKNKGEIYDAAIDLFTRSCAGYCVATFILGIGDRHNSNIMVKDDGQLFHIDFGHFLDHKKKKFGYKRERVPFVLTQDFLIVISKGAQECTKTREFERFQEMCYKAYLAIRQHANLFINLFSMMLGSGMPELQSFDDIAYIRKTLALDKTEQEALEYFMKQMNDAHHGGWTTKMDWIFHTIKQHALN
T1 sequence (P27986 whole entry partner): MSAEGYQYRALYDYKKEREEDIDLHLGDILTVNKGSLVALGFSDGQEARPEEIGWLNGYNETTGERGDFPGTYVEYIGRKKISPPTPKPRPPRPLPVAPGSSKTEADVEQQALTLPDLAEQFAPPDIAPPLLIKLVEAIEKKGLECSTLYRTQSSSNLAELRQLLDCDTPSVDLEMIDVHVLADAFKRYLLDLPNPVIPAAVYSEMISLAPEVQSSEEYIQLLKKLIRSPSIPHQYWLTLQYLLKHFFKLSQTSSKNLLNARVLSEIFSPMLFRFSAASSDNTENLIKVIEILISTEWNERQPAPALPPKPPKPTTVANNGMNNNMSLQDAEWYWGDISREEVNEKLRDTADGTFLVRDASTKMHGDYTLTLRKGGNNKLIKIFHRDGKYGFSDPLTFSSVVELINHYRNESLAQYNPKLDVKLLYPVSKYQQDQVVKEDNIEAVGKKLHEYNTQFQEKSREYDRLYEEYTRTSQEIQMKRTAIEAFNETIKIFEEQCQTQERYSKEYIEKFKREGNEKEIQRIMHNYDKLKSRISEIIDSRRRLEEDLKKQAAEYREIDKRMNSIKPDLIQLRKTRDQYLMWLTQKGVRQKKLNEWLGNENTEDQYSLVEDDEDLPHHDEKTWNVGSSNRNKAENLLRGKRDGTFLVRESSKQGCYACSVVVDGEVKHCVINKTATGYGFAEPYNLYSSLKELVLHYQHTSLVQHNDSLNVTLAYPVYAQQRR
T2 sequence (P42338 whole entry): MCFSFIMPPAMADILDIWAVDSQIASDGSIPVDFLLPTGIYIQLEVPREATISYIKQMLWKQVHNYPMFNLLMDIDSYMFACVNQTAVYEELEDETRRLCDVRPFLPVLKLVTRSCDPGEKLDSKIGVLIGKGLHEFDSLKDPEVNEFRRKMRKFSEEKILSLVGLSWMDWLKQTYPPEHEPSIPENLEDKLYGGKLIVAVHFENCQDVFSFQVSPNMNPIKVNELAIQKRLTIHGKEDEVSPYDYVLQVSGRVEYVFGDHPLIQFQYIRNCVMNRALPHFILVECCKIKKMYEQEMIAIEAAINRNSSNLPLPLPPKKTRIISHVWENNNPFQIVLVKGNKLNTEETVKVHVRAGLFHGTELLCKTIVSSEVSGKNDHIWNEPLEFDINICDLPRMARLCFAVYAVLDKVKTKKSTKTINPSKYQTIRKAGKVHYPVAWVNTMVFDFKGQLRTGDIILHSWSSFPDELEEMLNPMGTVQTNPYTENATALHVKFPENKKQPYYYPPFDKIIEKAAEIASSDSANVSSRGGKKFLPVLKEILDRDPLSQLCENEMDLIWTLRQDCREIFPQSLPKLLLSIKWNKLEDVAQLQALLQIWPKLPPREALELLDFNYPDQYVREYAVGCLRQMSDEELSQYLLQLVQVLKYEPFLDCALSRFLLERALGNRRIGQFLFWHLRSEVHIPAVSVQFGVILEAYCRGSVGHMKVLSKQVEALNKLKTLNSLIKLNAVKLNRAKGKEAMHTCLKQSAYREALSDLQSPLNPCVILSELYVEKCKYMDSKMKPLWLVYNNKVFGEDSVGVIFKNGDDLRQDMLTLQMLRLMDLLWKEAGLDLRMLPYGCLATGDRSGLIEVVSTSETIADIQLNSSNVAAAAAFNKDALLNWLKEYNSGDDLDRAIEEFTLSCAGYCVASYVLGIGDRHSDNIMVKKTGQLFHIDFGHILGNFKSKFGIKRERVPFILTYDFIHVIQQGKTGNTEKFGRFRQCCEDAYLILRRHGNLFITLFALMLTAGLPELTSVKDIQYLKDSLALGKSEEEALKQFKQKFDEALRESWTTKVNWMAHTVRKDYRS
T2 sequence (P27986 whole entry partner): as the sequence (P27986 whole entry partner) above
T4 sequence (P48736 whole entry): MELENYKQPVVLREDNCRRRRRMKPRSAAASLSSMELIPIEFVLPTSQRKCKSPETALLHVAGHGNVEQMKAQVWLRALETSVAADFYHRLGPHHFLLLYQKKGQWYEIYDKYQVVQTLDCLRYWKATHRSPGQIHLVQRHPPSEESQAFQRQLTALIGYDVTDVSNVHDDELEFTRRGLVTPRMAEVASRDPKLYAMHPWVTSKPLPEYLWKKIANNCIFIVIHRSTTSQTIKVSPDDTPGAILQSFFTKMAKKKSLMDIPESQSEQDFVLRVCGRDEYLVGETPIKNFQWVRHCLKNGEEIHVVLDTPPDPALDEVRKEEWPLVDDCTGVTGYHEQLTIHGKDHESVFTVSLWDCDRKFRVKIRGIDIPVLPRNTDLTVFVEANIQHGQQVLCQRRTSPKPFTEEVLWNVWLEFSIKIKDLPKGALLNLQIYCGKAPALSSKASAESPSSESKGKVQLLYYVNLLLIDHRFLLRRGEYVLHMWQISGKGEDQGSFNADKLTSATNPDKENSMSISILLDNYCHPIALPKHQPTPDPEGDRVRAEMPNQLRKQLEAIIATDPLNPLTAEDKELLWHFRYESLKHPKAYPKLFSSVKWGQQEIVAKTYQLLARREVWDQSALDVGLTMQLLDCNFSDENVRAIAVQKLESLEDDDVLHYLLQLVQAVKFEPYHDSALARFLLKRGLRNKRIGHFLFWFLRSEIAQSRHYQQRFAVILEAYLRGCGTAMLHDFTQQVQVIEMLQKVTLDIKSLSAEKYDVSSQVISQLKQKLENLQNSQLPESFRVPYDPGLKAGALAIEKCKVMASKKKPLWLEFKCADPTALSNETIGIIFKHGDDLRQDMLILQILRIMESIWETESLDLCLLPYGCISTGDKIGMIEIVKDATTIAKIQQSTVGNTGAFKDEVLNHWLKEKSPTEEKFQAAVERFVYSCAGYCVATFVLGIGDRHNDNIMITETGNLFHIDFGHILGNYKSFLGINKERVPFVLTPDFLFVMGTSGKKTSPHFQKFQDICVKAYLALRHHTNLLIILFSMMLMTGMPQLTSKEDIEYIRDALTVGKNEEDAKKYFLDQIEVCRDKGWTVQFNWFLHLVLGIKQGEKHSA
T3 sequence (O00329 whole entry): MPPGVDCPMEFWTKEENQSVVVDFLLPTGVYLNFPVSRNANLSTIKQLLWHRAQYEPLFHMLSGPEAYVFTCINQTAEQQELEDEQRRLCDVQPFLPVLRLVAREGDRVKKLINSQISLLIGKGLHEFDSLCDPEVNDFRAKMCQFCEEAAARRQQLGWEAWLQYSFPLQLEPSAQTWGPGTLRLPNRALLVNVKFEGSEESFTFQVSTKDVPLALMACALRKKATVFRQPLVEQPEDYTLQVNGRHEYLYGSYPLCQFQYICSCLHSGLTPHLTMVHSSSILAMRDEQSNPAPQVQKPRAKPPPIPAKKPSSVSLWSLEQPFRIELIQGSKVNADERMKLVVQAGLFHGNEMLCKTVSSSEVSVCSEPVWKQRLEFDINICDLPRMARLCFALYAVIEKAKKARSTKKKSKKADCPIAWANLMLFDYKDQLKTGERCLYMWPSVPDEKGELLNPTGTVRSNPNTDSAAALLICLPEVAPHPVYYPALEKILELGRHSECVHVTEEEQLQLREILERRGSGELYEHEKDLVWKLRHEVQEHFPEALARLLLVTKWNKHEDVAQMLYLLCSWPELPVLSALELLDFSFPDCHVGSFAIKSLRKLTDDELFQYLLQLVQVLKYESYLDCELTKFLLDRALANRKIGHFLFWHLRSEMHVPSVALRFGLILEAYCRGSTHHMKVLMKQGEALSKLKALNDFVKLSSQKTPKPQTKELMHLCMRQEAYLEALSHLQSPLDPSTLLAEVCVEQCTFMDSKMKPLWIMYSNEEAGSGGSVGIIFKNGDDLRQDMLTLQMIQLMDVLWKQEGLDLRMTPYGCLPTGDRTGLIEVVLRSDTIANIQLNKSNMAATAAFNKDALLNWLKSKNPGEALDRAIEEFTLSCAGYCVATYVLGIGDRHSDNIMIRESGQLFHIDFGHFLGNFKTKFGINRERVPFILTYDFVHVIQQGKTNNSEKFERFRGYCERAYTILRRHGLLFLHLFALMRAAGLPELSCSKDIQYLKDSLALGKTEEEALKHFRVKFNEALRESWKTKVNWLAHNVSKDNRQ
T3 sequence (P27986 whole entry partner): as the sequence (P27986 whole entry partner) above

Compound: CC(=O)Nc1cc(-c2cc([C@@H](c3ccc(Cl)cc3)N3CCC3)c(-c3nnc[nH]3)s2)ccn1 (single isomer, unassigned) [Compound 176]
inhibition at 1.1 µM [1]: 76% | inhibition at 1.1 µM [2]: 109% | inhibition at 1 µM [3]: 109% | inhibition at 1 µM [4]: 35%

Compound: CC(=O)Nc1cc(-c2cc(C(c3ccc(Cl)cc3)N3CCC[C@H]3CO)c(-c3nnc[nH]3)s2)ccn1 (single isomer, unassigned) [Compound 192]
p110 alpha Percent Inhibition [1]: 48% | p110 beta Percent Inhibition [2]: 90% | p110 delta Percent Inhibition [3]: 100% | p110 gamma Percent Inhibition [4]: 12%

Compound: CC(=O)Nc1cc(-c2cc([C@@H](c3ccc(Cl)cc3)N(C)C)c(-c3nnc[nH]3)s2)ccn1 (single isomer, unassigned) [Compound 204]
inhibition at 1.1 µM [1]: 70% | inhibition at 1.1 µM [2]: 101% | inhibition at 1 µM [3]: 90% | inhibition at 1 µM [4]: 25%

Compound: CC(=O)Nc1cc(-c2cc([C@H](c3ccc(Cl)cc3)N3CCC3)c(-c3nnc[nH]3)s2)ccn1 (single isomer, unassigned) [Compound 241]
inhibition at 1.1 µM [1]: 59% | inhibition at 1.1 µM [2]: 107% | inhibition at 1 µM [3]: 104% | inhibition at 1 µM [4]: 27%

Compound: CC(=O)Nc1cc(-c2cc(C(c3ccc(Cl)cc3)N3CCC[C@H]3CO)c(-c3nnc[nH]3)s2)ccn1 (single isomer, unassigned) [Compound 259]
p110 alpha Percent Inhibition [1]: 69% | inhibition at 1.1 µM [2]: 100% | inhibition at 1 µM [3]: 101% | p110 gamma Percent Inhibition [4]: 25%

Compound: CC(=O)Nc1cc(-c2cc([C@H](c3ccc(Cl)cc3)N(C)C)c(-c3nnc[nH]3)s2)ccn1 (single isomer, unassigned) [Compound 261]
inhibition at 1.1 µM [1]: 79% | inhibition at 1.1 µM [2]: 113% | inhibition at 1 µM [3]: 105% | inhibition at 1 µM [4]: 33%

Compound: CC(=O)Nc1cc(-c2cc(C(c3ccc(Cl)cc3)N3CCC[C@@H]3CO)c(-c3nnc[nH]3)s2)ccn1 (single isomer, unassigned) [Compound 283]
p110 alpha Percent Inhibition [1]: 96% | p110 beta Percent Inhibition [2]: 98% | p110 delta Percent Inhibition [3]: 99% | p110 gamma Percent Inhibition [4]: 18%

Compound: N#Cc1c(N2CCOCC2)sc(C(=O)O)c1Cc1ccc2ccc(F)cc2c1 [Compound 287]
inhibition at 1 µM [3]: 112%

Compound: N#Cc1c(N2CCOCC2)sc(C(=O)O)c1Cc1ccc2ccccc2c1F [Compound 293]
inhibition at 1 µM [3]: 110%

Compound: N#Cc1c(N2CCOCC2)sc(C(=O)O)c1Cc1cc2ccccc2cc1F [Compound 295]
inhibition at 1 µM [3]: 112%

Compound: N#Cc1c(N2CCOCC2)sc(C(=O)O)c1Cc1cc(F)c(Cl)cc1F [Compound 300]
inhibition at 1 µM [3]: 97%

The next lines start with the values.

inhibition at 1 µM [3]: 74%
Compound: N#Cc1c(N2CCOCC2)sc(C(=O)O)c1Cc1ccc2c(c1)CCCC2 [Compound 305]

inhibition at 1 µM [3]: 62%
Compound: N#Cc1c(N2CCOCC2)sc(C(N)=O)c1C(F)(F)c1ccc2ccccc2c1 [Compound 307]

inhibition at 1 µM [3]: 92%
Compound: N#Cc1c(N2CCOCC2)sc(C(=O)O)c1C(F)(F)c1ccc2ccccc2c1 [Compound 308]

inhibition at 1 µM [3]: 113%
Compound: N#Cc1c(N2CCOCC2)sc(C(=O)O)c1Cc1cc(F)c2ccccc2c1 [Compound 324]

p110 delta Percent Inhibition [3]: 46%
Compound: COC(c1ccc2ccccc2c1)c1c(C(=O)O)sc(N2CCOCC2)c1C#N (centres unmarked) [Compound 337]

inhibition at 1 µM [3]: 113%
Compound: N#Cc1c(N2CCOCC2)sc(C(=O)O)c1Cc1ccc2c(F)cccc2c1 [Compound 343]

p110 alpha Percent Inhibition [1]: 64% | inhibition at 1 µM [3]: 83%
Compound: N#Cc1c(N2CCOCC2)sc(C(=O)O)c1C(F)c1ccc2ccccc2c1 (centres unmarked) [Compound 345]

inhibition at 1 µM [3]: 96%
Compound: N#Cc1c(N2CCOCC2)sc(-c2nnn[nH]2)c1C(F)(F)c1ccc2ccccc2c1 [Compound 349]
